One experiment has as its target T1, ETB receptor (Homo sapiens, UniProt P24530).
T1 construct: expressed in transfected cells; host or cells: HEK293T (transient)
T1 sequence (P24530 27-442): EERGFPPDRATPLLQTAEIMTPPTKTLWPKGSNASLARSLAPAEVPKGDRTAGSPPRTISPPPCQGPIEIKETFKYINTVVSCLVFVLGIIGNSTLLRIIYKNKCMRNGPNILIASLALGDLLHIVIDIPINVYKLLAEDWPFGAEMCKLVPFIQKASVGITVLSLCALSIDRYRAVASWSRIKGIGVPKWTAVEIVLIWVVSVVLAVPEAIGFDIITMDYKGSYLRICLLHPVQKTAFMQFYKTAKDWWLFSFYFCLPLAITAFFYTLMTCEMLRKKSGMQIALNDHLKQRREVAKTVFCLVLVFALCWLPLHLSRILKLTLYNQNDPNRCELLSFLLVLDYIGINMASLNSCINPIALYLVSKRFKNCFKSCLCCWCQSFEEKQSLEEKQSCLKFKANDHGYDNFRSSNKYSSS
In words: BRET-based G protein activation, wildtype ETB receptor + Gαq biosensor in HEK293T cells. It counts as cell-based. As to the method: Two days before BRET measurements were performed, HEK293T cells were transiently transfected with 3 µg of cDNAs containing TP receptor, ETB receptor, DP2 receptor, or S1P3 receptor and 3 µg of cDNAs containing Gβ3-T2A-cpVenus-Gγ9-IRES-Gαq-NLuc or Gβ3-T2A-cpVenus-Gγ9-IRES-Gαo1-NLuc using linear 25 kDa PEI reagent (polyethylenimine, PolyScience Inc., Hirschberg an der Bergstraße, Germany). The ratio between DNA and PEI was 1:3, and 50 µl serum-free DMEM was added per 1 µg DNA. The same amount of serum-free DMEM was also added separately to the PEI solution. DNA-DMEM and PEI-DMEM mixtures were incubated for 5 minutes, followed by incubation of the final mixture for another 10 minutes. […]
Two days before the actual measurement, HEK293T cells were transiently transfected and seeded on microplates. […] The measurements were performed using a Spark 20M plate reader (Tecan) at 37°C. Initially, the cells were measured for the baseline emission ratio. After the baseline measurement, 20 µl of external or internal buffer containing differing concentrations of either U-46619, 4-Ala ET-1, PGD,2 or S1P or external or internal buffer alone were added to the cells and measured. […] The cells were measured from the top and the donor luminescence (NLuc) was recorded at 415 to 470 nm and the acceptor luminescence (cpVenus) at 520 to 590 nm. Data were recorded using SparkControl^TM software. […]
For orientation: BRET reads energy transfer from a luciferase to a nearby fluorophore.

In experiment [1] the target is EP4 receptor conformation sensor (Homo sapiens, UniProt P35408). In words: FRET-based EP4 receptor conformation sensor stably expressed in HEK293 cells (intact, saponin-permeabilized, membrane fragments). The experiment is classed as cell-based. The note with it: for Schild plot slope value of fitted linear regression / pKB (Schild plot, abscissa intercept): versus PGE2; for response of about 10 times EC50 normalized to saturating PGE2 concentration: 830 nM 11-deoxy PGE2, pipetting protocol. As to the method:
(§1) The cells were washed once with external buffer and subsequently incubated 2 minutes for single-cell FRET measurements or 10 minutes for BRET measurements in 0.05% saponin (AppliChem, Darmstadt, Germany) dissolved in internal buffer. Afterward, the cells were washed five times for single-cell FRET measurements or three times for BRET measurements with internal buffer.
HEK293 cells stably expressing the EP4 receptor, IP receptor, or DP2 receptor conformation sensor were seeded on 15 cm Ø dishes and grown until optical confluence. The cells were washed once with Dulbecco’s PBS (Capricorn Scientific GmbH), without Ca & Mg and Phenol Red (phosphate-buffered saline, PBS). After adding 5 ml PBS to the cells, the dish was treated with liquid nitrogen until the solution was visibly frozen. These dishes were stored at −80°C until the measurements were carried out. On the day of the measurement, the dishes were removed from the freezer and stored at room temperature until the buffer solution had thawed. The material was collected with a cell scraper and centrifuged (5000 rpm/5 min). The supernatant was discarded, the pellet containing the membrane fragments was resuspended with external buffer containing 0.1% BSA and seeded on microplates. […]

Experiment [2] addresses T2, α2A-AR conformation sensor CAM (Mus musculus, UniProt Q01338).
T2 sequence (Q01338 1-465): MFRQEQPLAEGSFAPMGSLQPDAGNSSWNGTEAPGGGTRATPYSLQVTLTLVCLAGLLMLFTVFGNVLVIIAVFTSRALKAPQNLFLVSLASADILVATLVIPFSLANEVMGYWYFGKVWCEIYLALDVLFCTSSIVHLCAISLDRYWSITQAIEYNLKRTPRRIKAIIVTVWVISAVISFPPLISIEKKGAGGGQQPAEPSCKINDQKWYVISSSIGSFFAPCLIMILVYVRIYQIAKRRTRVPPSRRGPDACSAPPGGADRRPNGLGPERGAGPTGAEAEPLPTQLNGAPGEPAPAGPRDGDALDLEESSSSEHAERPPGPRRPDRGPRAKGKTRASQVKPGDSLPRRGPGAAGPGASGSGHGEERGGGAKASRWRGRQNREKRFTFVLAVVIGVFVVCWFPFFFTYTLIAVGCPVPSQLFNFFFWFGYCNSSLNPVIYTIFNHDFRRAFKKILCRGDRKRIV
Kind of experiment: FRET-based α2A-AR CAM conformation sensor, single-cell measurements in HEK293 cells. On the set-up: species or system murine. How it is done:
as §1
(§2) The coverslips loaded with stably transfected HEK293 cells containing either the FFA3 receptor, α2A-AR CAM, or ETB receptor conformation sensors were clamped in an Attofluor^TM cell chamber and were washed once with external buffer. Afterward, they were side by side either permeabilized or directly measured at room temperature by the use of an inverted microscope (Elipse Ti2, Nikon, Düsseldorf, Germany), equipped with a 100× oil immersion objective (Plan Apo λ 100 x/1.45 oil ∞/0.17 WD 0.13, Nikon, Düsseldorf, Germany) and dual excitation and dual emission imaging capabilities. […] The fluorescence emission of mT2 and the respective YFP variant was simultaneously collected by a second beamsplitter (488, Chroma, Bellows Falls, Vermont, U.S.A.) and two emission filters (mT2: 474/27, Chroma; YFP: 544/23, Chroma). […] For all single-cell FRET experiments, cells were prospectively selected based on a continuous plasma-membrane fluorescence rim and appropriate fluorescence distribution to ensure a PM-dominant receptor signal. […]

Experiment [3] deals with T3, FFA3 receptor conformation sensor (Homo sapiens, UniProt O14843).
T3 construct: mT2 insertion and truncation after G314; expressed in transfected cells
T3 sequence (O14843 1-314 limits assumed): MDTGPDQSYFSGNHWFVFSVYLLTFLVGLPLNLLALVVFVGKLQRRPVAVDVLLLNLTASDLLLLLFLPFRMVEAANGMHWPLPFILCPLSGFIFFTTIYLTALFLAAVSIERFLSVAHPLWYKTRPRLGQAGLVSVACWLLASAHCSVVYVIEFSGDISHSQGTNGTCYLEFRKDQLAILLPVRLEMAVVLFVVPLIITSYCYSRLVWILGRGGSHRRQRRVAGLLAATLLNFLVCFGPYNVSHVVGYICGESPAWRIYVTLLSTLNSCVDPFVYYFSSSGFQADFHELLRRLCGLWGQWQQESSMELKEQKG
In words: FRET-based FFA3 receptor conformation sensor, single-cell measurements in HEK293 cells. As to the method:
as §1, §2

In general, EC50 refers to the concentration giving half of the maximal effect. Broadly, the pEC50 is the EC50 on a negative log10 scale, so that one unit is a factor of ten. The low end stands for a large EC50, the high end for a small EC50.

No end group written: not given here.

EP4 receptor conformation sensor, sequence (P35408 1-332 limits assumed): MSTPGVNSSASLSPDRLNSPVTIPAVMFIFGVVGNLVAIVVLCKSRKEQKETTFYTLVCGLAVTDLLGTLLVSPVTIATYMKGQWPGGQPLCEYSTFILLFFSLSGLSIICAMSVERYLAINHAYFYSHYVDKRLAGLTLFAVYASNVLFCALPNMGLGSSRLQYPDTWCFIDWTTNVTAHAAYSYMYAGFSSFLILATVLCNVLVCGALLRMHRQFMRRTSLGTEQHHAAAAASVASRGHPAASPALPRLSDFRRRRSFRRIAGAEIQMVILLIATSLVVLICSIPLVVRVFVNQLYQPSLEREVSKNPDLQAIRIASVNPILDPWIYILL

Consider ASASSLMDKEAVYFAHLDIIW-OH [4-Ala ET-1], for which the EC50 on ETB receptor (intact HEK293T cells) was 8.91 nM; on ETB receptor (saponin-permeabilized cells with 1 µM GTP), 0.617 nM.
Regarding `CCCCc1nn(-c2ccccc2C(F)(F)F)c(=O)n1Cc1ccc(-c2ccccc2S(=O)(=O)NC(=O)c2sccc2C)cc1` [L-161,982], the “Schild plot slope value of fitted linear regression” value in experiment [1] (intact cells) is 1.16; in experiment [1] (membrane fragments), 0.69. Also, the “pKB (Schild plot, abscissa intercept)” value is 7.7 in experiment [1] (intact cells) and 6.6 in experiment [1] (membrane fragments).
As for `NC[C@H](O)c1ccc(O)c(O)c1` [norepinephrine], the pEC50 is 6.10 in experiment [2] (intact cells) and 5.63 in experiment [2] (saponin-permeabilized cells).
On to `CCC(=O)O` [propionate, propionic acid], for which the results for the pEC50 in experiment [3] (intact cells) and in experiment [3] (saponin-permeabilized cells) were 3.92 and 3.84, respectively.
In experiment [1] (intact HEK293 cells, multiple-cell FRET on plate reader), `CCCCC[C@H](O)/C=C/[C@H]1CCC(=O)[C@@H]1C/C=C\CCCC(=O)O` [11-deoxy PGE2] showed a pEC50 of 7.08. Further, the figures for the “response of about 10 times EC50 normalized to saturating PGE2 concentration” value in experiment [1] (intact cells) and in experiment [1] (saponin-permeabilized cells) were 91% ± 3 and 50% ± 3, respectively.

Values taken from paper PMC12687449, “Membrane disruption attenuates agonist potency in prostanoid receptors” (Biochemical Journal, 2025).
